# Assays:
# Assay type in all cases: in vivo, human
# [1] = system: pain-evoked brain activity; experiment: fMRI of evoked cuff pain, BOLD activations
# From the text: As used herein, “Functional Magnetic Resonance Imaging of Evoked Pain and Visual Stimulation” refers to the following procedure. During evoked pain and visual stimulation fMRI paradigms, participants were lying in the scanner as they received either pressure stimulation to their calf muscle or they experienced an unpleasant visual stimulus. For both pain and visual stimulation, whole-brain Blood Oxygenation Level Dependent (BOLD) functional images were acquired.
# Each subject underwent a 12-minute block design scan, during which 3 cuff pressure levels (2 equal pressures=15 to 30 and 100 to 115 mmHg; and 1 equal pain=40 to 60/100 numerical rating scale [NRS] units) were applied to the left calf […] using the pressure cuff device in pseudo-random order for a total of 12 pressure stimulations. Pressure levels for each subject were determined during the QST assessment. Each pressure stimulus was applied for 14 seconds. Prior to each pressure stimulus, a 4-second visual cue was presented to signal upcoming cuff pressure to limit any stimulus-onset startle reflex. Subjects' head motion was minimized using foam pads around the head, and a strap secured across the forehead.
# As with functional connectivity analyses, pre-processing of images occurs using SPM12. The first 5 images were discarded from the data set and not used for further analysis in order to correct for equilibration effects. Pre-processing steps included: physio-correction, motion correction, coregistration, normalization, and smoothing (FWHM 6 or 8 mm). First level analyses were performed using the general linear model (GLM) implemented in SPM12. Motion parameters from re-alignment were modelled as regressors of no interest. Pain and visual blocks were convolved with a canonical hemodynamic response function and contrasted with rest blocks of no stimulation. These activation maps were then passed up to group-level analyses comparing differences in activations at the analysis visits of interest in SPM. Resulting maps were set at an uncorrected voxel threshold of p<0.001, with p<0.05 FDR or FWE significance corrected for multiple comparisons. The primary analyses were a paired sample t-tests between placebo images and NYX-2925 images (either 20 or 200 mg).
# Several analyses were conducted with the fMRI resting state and task data. Results were assessed by: 1) a primary analysis, where a finding was deemed significant with a corrected cluster level p<0.05, derived from an uncorrected voxel-wise p<0.001, and 2) an exploratory analysis, where a finding was deemed significant with an uncorrected voxel-wise p<0.005 and having a cluster greater than or equal to 80 contiguous voxels. Results that met significance in the primary analyses had connectivity values extracted and imported into SPSS v25 where paired t-tests were performed to assess for potential outliers contributing to the finding. Remaining data were then correlated with clinical measures using parametric bivariate Pearson correlations. Results were deemed significant at p<0.05.
# [2] = system: subjects with fibromyalgia; experiment: Multidimensional Inventory of Subject Cognitive Impairment (MISCI); conditions: not statistically significant
# From the text: As used herein, “MISCI” is Multidimensional Inventory of Subject Cognitive Impairment. The MISCI is a 10-item assessment that measures cognitive function. The instrument examines 5 cognitive domains: mental clarity, memory, language, executive functioning, and attention/concentration. The first 6 items are positively worded and reflect perceived cognitive abilities and the last 4 items are negatively worded and reflect perceived cognitive difficulties. The same scoring metric is used for both response scales. However, the scores on items 7-10 must be reverse-coded prior to summing the responses to generate the total score due to the negative wording of these items. Here is a list of the categorical responses with the numeric values that make up the total score: • Positively Worded Items 1-6:“Not at All”=1; “A Little Bit”=2; “Somewhat”=3; “Quite a Bit”=4; “Very Much”=5 • Negatively Worded Items 7-10: “Never”=5; “Rarely”=4; “Sometimes”=3; “Often”=2; “Very Often”=1
# The total score was calculated by the sum of all the 10 items ranging from 10 to 50, with higher scores indicating better perceived cognitive functioning (i.e. lower impairment). […] The MISCI assessment was collected and analyzed at visits Screening, Day 1, Week 2, Week 4, Week 6, and Follow-up (Week 7). […] Additionally, the treatment group comparisons were analyzed using the paired ttest and nonparametric Wilcoxon signed-rank test.
# [3] = system: subjects with fibromyalgia; experiment: QST: digital algometer pressure pain threshold (trapezius, wrist, patella)
# Method: Localized pressure pain sensitivity was also measured bilaterally at 3 additional body regions: trapezius, wrist, and patella. Examination of multiple sites across all quadrants of the body permitted analysis of the distribution of pain sensitivity. Sensitivity was measured using a digital algometer with a 1-cm^2 flat rubber probe. […] Measurements were conducted 2 to 3 times (15- to 20-second intervals) at each site.
# (§1) QST data were analyzed at the University of Michigan CPFRC. Dependent variables were the MAST derived outcomes (Pain50, pressure pain threshold, pain tolerance, and pain ratings at 2 kg/cm2), algometry-derived pressure pain thresholds (mean of three trials) at each anatomical site, average cuff intensity ratings (mean of ratings at all stimulus levels during the ascending or random sequences), and average visual task unpleasantness and brightness intensity ratings (mean of ratings at all stimulus levels). Practice data were not analyzed. Overall pain intensity and unpleasantness NRS scores as well as stimulus response curves for each test were assessed during post hoc analyses. Data points displaying measurement artefacts, including device malfunction or user error, were set to missing. Single subject QST variables were analyzed using paired t-tests and/or nonparametric Wilcoxon signed-rank tests in SPSS or R.
# [4] = system: subjects with fibromyalgia; experiment: QST: visual stimulation task
# From the text: To measure non-somatic sensitivity, a series of nonpainful, yet aversive, visual stimuli were presented to each subject. This 10-minute task consisted of 2 different visual stimuli presented in an alternating block design. The control stimulus was a solid color background, whereas experimental stimulus was a flashing annulus checkerboard. These 2 stimuli were interleaved into independent 8- to 30-second blocks throughout the duration of the task. Subjects viewed the stimuli on a calibrated liquid crystal display computer screen designed for high resolution image presentation. Stimuli were presented at varying brightness levels and/or color patterns, and each stimulus presentation was rated on scales of sensory intensity and unpleasantness. […] A redacted version of this task was administered during fMRI.
# as §1
smiles,measurement,setting,value
"CC(C)C(=O)N1CCC[C@]12CN([C@H](C(N)=O)[C@@H](C)O)C2=O [NYX-2925, (2S, 3R)-3-hydroxy-2-((R)-5-isobutyryl-1-oxo-2,5-diazaspiro[3.4]octan-2-yl)butanamide]","pain-evoked brain activity in brain imaging, subject 1","[1]; 200 mg dose vs placebo, FIGS. 4A, 4B",reduced pain-related brain activity
same,"pain-evoked brain activity in brain imaging, subject 2","[1]; 200 mg dose vs placebo, FIGS. 4C, 4D",reduction in pain-related brain activity
same,BOLD activations in right mid cingulate cortex and left primary somatosensory cortex/supplementary motor area,"[1]; exploratory, placebo visit to NYX-2925 20 mg visit",decreased
same,"BOLD activations in right putamen/insula, bilateral primary somatosensory/cingulate cortex, left putamen, left posterior insula","[1]; exploratory, placebo visit to NYX-2925 200 mg visit",decreased
same,"BOLD activations, evoked cuff pain task (Pain50 pressure > rest)",[1]; primary analyses,No significant BOLD activations
same,"MISCI Total score, mean change",[2]; Week 2 (placebo) to Week 4 (NYX-2925 20 mg),1.1
same,"MISCI Total score, mean change",[2]; Week 2 (placebo) to Week 6 (NYX-2925 200 mg),0.9
same,right trapezius pressure pain threshold,"[3]; 200 mg, placebo 1.77±1.53, p=0.047",1.58±1.37 kgf/cm^2
same,left wrist pressure pain threshold,"[3]; NYX-2925 20 mg, baseline 1.60±1.11, p=0.042",1.30±1.08 kgf/cm^2
same,right wrist pressure pain threshold,"[3]; NYX-2925 20 mg, baseline 1.64±1.30, p=0.021",1.28±1.10 kgf/cm^2
same,right wrist pressure pain threshold,"[3]; NYX-2925 200 mg, baseline 1.64±1.30, p=0.042",1.32±1.15 kgf/cm^2
same,overall visual task unpleasantness,[4]; NYX-2925 200 mg (Week 6),42.31±29.20
same,rating of unpleasantness evoked by the brightest visual stimulus,[4]; NYX-2925 200 mg (Week 6),59.97±35.46 NRS
same,rating of unpleasantness evoked by the brightest visual stimulus,"[4]; Week 7 follow-up, p=0.037 vs 200 mg",53.13±36.88 NRS
same,overall visual task unpleasantness,"[4]; Week 7 follow-up, p=0.040 vs 200 mg",33.85±28.07
